Results reported in ChEMBL document CHEMBL1201862, “PubChem BioAssay data set” (2004).
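Grown in 96-well plates, cells were treated for 48 hours with each compound at five concentrations. Insufficient inhibition: endpoint recorded as highest concentration tested. At the GI50, growth is halved.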 Activity calls are given as the source filed them. No stated cut-off is given here; in the data, active = GI50 up to about 1.1 µM and inactive = higher.

Key:
Test in all cases: growth of human tumour cells (NCI), 48 h
NCI/ADR-RES = test system: NCI/ADR-RES
786-0 = test system: 786-0
DU-145 = test system: DU-145
SW-620 = test system: SW-620
HOP-62 = test system: HOP-62
HCT-15 = test system: HCT-15
RXF 393 = test system: RXF 393
SK-MEL-28 = test system: SK-MEL-28
SF-295 = test system: SF-295
OVCAR-4 = test system: OVCAR-4
U-251 = test system: U-251
CCRF-CEM = test system: CCRF-CEM
NCI-H522 = test system: NCI-H522
TK-10 = test system: TK-10
T47D = test system: T47D
PC-3 = test system: PC-3
MDA-MB-231 = test system: MDA-MB-231
MDA-MB-435 = test system: MDA-MB-435
K562 = test system: K562
BT-549 = test system: BT-549
HCT-116 = test system: HCT-116
UACC-62 = test system: UACC-62
OVCAR-3 = test system: OVCAR-3
COLO 205 = test system: COLO 205
SNB-19 = test system: SNB-19
A549 = test system: A549
A498 = test system: A498
UACC-257 = test system: UACC-257
HOP-92 = test system: HOP-92
HT-29 = test system: HT-29
NCI-H226 = test system: NCI-H226
MOLT-4 = test system: MOLT-4
LOX IMVI = test system: LOX IMVI
NCI-H460 = test system: NCI-H460
OVCAR-8 = test system: OVCAR-8
HL-60 = test system: HL-60
CAKI-1 = test system: CAKI-1
IGROV-1 = test system: IGROV-1
NCI-H23 = test system: NCI-H23
RPMI-8226 = test system: RPMI-8226
SK-MEL-2 = test system: SK-MEL-2
UO-31 = test system: UO-31
Malme-3M = test system: Malme-3M
MCF7 = test system: MCF7
M14 = test system: M14
MDA-N = test system: MDA-N
SN12C = test system: SN12C
SK-MEL-5 = test system: SK-MEL-5
KM12 = test system: KM12
OVCAR-5 = test system: OVCAR-5
ACHN = test system: ACHN
SF-268 = test system: SF-268
SR = test system: SR
SNB-75 = test system: SNB-75
SK-OV-3 = test system: SK-OV-3
HCC 2998 = test system: HCC 2998
Hs-578T = test system: Hs-578T
EKVX = test system: EKVX

O=C1NC(=S)NC(=O)C1C(c1ccc(O)cc1)C1C(=O)NC(=S)NC1=O.c1ccncc1
GI50 (NCI/ADR-RES): > 100 µM (inactive) | GI50 (786-0): > 100 µM (inactive) | GI50 (DU-145): > 100 µM (inactive) | GI50 (SW-620): > 100 µM (inactive) | GI50 (HOP-62): > 100 µM (inactive) | GI50 (HCT-15): > 100 µM | GI50 (RXF 393): > 100 µM (inactive) | GI50 (SK-MEL-28): > 100 µM (inactive) | GI50 (SF-295): > 100 µM (inactive) | GI50 (OVCAR-4): > 100 µM (inactive) | GI50 (U-251): > 100 µM (inactive) | GI50 (CCRF-CEM): > 100 µM (inactive) | GI50 (NCI-H522): > 100 µM (inactive) | GI50 (TK-10): > 100 µM (inactive) | GI50 (T47D): > 100 µM (inactive) | GI50 (PC-3): > 100 µM (inactive) | GI50 (MDA-MB-231): > 100 µM (inactive) | GI50 (MDA-MB-435): > 100 µM (inactive) | GI50 (K562): > 100 µM (inactive) | GI50 (BT-549): > 100 µM (inactive) | GI50 (HCT-116): > 100 µM (inactive) | GI50 (UACC-62): > 100 µM (inactive) | GI50 (OVCAR-3): > 100 µM (inactive) | GI50 (COLO 205): > 100 µM (inactive) | GI50 (SNB-19): > 100 µM (inactive) | GI50 (A549): > 100 µM (inactive) | GI50 (A498): > 100 µM (inactive) | GI50 (UACC-257): > 100 µM (inactive) | GI50 (HOP-92): > 100 µM (inactive) | GI50 (HT-29): > 100 µM (inactive) | GI50 (NCI-H226): > 100 µM (inactive) | GI50 (MOLT-4): > 100 µM (inactive) | GI50 (LOX IMVI): > 100 µM (inactive) | GI50 (NCI-H460): > 100 µM (inactive) | GI50 (OVCAR-8): > 100 µM (inactive) | GI50 (HL-60): > 100 µM (inactive) | GI50 (CAKI-1): > 100 µM (inactive) | GI50 (IGROV-1): > 100 µM (inactive) | GI50 (NCI-H23): > 100 µM (inactive) | GI50 (RPMI-8226): > 100 µM (inactive) | GI50 (SK-MEL-2): > 100 µM (inactive) | GI50 (UO-31): > 100 µM (inactive) | GI50 (Malme-3M): > 100 µM (inactive) | GI50 (MCF7): > 100 µM (inactive) | GI50 (M14): > 100 µM (inactive) | GI50 (MDA-N): > 100 µM (inactive) | GI50 (SN12C): > 100 µM (inactive) | GI50 (SK-MEL-5): > 100 µM (inactive) | GI50 (KM12): > 100 µM (inactive) | GI50 (OVCAR-5): > 100 µM (inactive) | GI50 (ACHN): > 100 µM (inactive)

COC(=O)[C@@](NC(=O)OCc1ccccc1)([C@H](C)O)C(F)(F)F
GI50 (NCI/ADR-RES): > 100 µM (inactive) | GI50 (786-0): > 100 µM (inactive) | GI50 (DU-145): > 100 µM (inactive) | GI50 (SW-620): > 100 µM (inactive) | GI50 (HOP-62): > 100 µM (inactive) | GI50 (HCT-15): > 100 µM | GI50 (RXF 393): 53.5 µM (inactive) | GI50 (SK-MEL-28): > 100 µM (inactive) | GI50 (SF-295): > 100 µM (inactive) | GI50 (OVCAR-4): > 100 µM (inactive) | GI50 (U-251): > 100 µM (inactive) | GI50 (SF-268): > 100 µM (inactive) | GI50 (CCRF-CEM): 57.4 µM (inactive) | GI50 (SR): 50.1 µM (inactive) | GI50 (NCI-H522): > 100 µM (inactive) | GI50 (TK-10): > 100 µM (inactive) | GI50 (SNB-75): > 100 µM (inactive) | GI50 (T47D): > 100 µM (inactive) | GI50 (PC-3): > 100 µM (inactive) | GI50 (MDA-MB-231): > 100 µM (inactive) | GI50 (MDA-MB-435): > 100 µM (inactive) | GI50 (K562): > 100 µM (inactive) | GI50 (BT-549): > 100 µM (inactive) | GI50 (HCT-116): > 100 µM (inactive) | GI50 (UACC-62): > 100 µM (inactive) | GI50 (OVCAR-3): > 100 µM (inactive) | GI50 (COLO 205): > 100 µM (inactive) | GI50 (SNB-19): > 100 µM (inactive) | GI50 (A549): > 100 µM (inactive) | GI50 (A498): > 100 µM (inactive) | GI50 (SK-OV-3): > 100 µM (inactive) | GI50 (UACC-257): > 100 µM (inactive) | GI50 (HOP-92): > 100 µM (inactive) | GI50 (HT-29): > 100 µM (inactive) | GI50 (NCI-H226): > 100 µM (inactive) | GI50 (MOLT-4): > 100 µM (inactive) | GI50 (LOX IMVI): > 100 µM (inactive) | GI50 (NCI-H460): > 100 µM (inactive) | GI50 (HCC 2998): > 100 µM (inactive) | GI50 (Hs-578T): > 100 µM (inactive) | GI50 (OVCAR-8): > 100 µM (inactive) | GI50 (HL-60): > 100 µM (inactive) | GI50 (CAKI-1): > 100 µM (inactive) | GI50 (IGROV-1): > 100 µM (inactive) | GI50 (NCI-H23): > 100 µM (inactive) | GI50 (RPMI-8226): > 100 µM (inactive) | GI50 (SK-MEL-2): > 100 µM (inactive) | GI50 (EKVX): > 100 µM (inactive) | GI50 (UO-31): > 100 µM (inactive) | GI50 (Malme-3M): > 100 µM (inactive) | GI50 (M14): > 100 µM (inactive) | GI50 (SK-MEL-5): > 100 µM (inactive) | GI50 (KM12): > 100 µM (inactive) | GI50 (OVCAR-5): > 100 µM (inactive) | GI50 (ACHN): > 100 µM (inactive)
